Viscosity data for ten compounds are collected here from the CheMixHub viscosity set.

“And” between values parts separate entries of the source, which are not always exact repeats. Equal values may be shown once. ± gives the uncertainty stated by the source.

Broadly, the viscosity is the internal friction of a fluid under shear. `BrCCBr`: the viscosity runs as follows: (298.15 K, 101 kPa) 1.613 ± 0.021 mPa·s; (298.15 K, 101.33 kPa) 1.616 ± 0.019 mPa·s and 1.564 ± 0.016 mPa·s; (308.15 K, 101.33 kPa) 1.384 ± 0.016 mPa·s; (323.15 K, 101.33 kPa) 1.107 ± 0.011 mPa·s.

Regarding `Brc1ccccc1`, the viscosity (293.15 K, 101 kPa) is on record as 1.125 ± 0.019 mPa·s; the viscosity (293.15 K, 101.33 kPa) is recorded as 1.142 ± 0.028 mPa·s; the viscosity (298.15 K, 101 kPa) is 1.07 ± 0.0098 mPa·s and 1.068 ± 0.009 mPa·s; the viscosity (303.15 K, 101.33 kPa) came to 0.985 ± 0.007 mPa·s; the viscosity (313.15 K, 101.33 kPa) was 0.895 ± 0.007 mPa·s; the viscosity (318 K, 101.3 kPa) was 0.8536 ± 0.031 mPa·s. In addition, the viscosity was 0.8536 ± 0.039 mPa·s (318 K, 101.33 kPa); 0.7925 ± 0.021 mPa·s and 0.836 ± 0.023 mPa·s (318.15 K, 101 kPa); 0.784 ± 0.021 mPa·s (323.15 K, 101 kPa).

Take `C#Cc1ccccc1`: the viscosity (298.15 K, 101 kPa) came to 0.8829 ± 0.011 mPa·s.

Consider `C1=C[C@H]2[C@@H](C1)[C@H]1C=C[C@@H]2C1`, for which the viscosity was 4.463 ± 0.23 mPa·s (293.15 K, 101.2 kPa); 3.918 ± 0.2 mPa·s (298.15 K, 101.2 kPa); 3.456 ± 0.18 mPa·s (303.15 K, 101.2 kPa); 3.126 ± 0.16 mPa·s (308.15 K, 101.2 kPa); 2.81 ± 0.14 mPa·s (313.15 K, 101.2 kPa); 2.539 ± 0.13 mPa·s (318.15 K, 101.2 kPa).

With `CC(=O)OCC(COC(C)=O)OC(C)=O`, the viscosity is, setting by setting: (298 K, 101.33 kPa) 16.31 ± 0.24 mPa·s; (303 K, 101.33 kPa) 12.62 ± 0.17 mPa·s; (308 K, 101.33 kPa) 10.03 ± 0.13 mPa·s; (313 K, 101.33 kPa) 8.12 ± 0.11 mPa·s.

Regarding `CC(=O)[O-].CCCC[n+]1ccn(C)c1`, the viscosity is 594.8 ± 50 mPa·s (298.15 K, 100 kPa); 441 ± 48 mPa·s (298.15 K, 101 kPa); 399.6 ± 29 mPa·s (303.15 K, 100 kPa); 200.1 ± 11 mPa·s (313.15 K, 100 kPa); 154.5 ± 17 mPa·s (313.15 K, 101 kPa); 125.7 ± 14 mPa·s and 138.3 ± 14 mPa·s (314.3 K, 101 kPa). This compound returned a viscosity (323.15 K, 100 kPa) of 111.7 ± 4.5 mPa·s.

`CC(C)N` displayed a viscosity (298.15 K, 101 kPa) of 0.278 ± 0.002 mPa·s.

Regarding `CC(C)[N+](=O)[O-]`, the viscosity (293.15 K, 101.33 kPa) was 0.771 ± 0.008 mPa·s.

As to `CC(F)(F)Cl`, the viscosity by setting is: (293.15 K, 101 kPa) 0.2489 ± 0.0099 mPa·s; (293.35 K, 101 kPa) 0.2432 ± 0.0087 mPa·s; (293.45 K, 101 kPa) 0.2381 ± 0.0097 mPa·s; (313.15 K, 101 kPa) 0.2004 ± 0.0054 mPa·s; (313.25 K, 101 kPa) 0.2015 ± 0.0055 mPa·s; (313.35 K, 101 kPa) 0.2002 ± 0.0054 mPa·s.

Under “298.15 K, 101 kPa”, `CCCC#N` returned a viscosity of 0.502 ± 0.04 mPa·s.
